# Measured values reported in patent US20060252723A1, “Combined therapy utilizing reduction of DNA methyltransferase expression and/or activity and interferon” (Methylgene, Inc. The Cleveland Clinic Foundation, priority 2005, published 2006).
# What was measured:
# DNMT1 protein = molecular target: T1, DNMT1 protein (Homo sapiens, UniProt P26358); experiment: DNMT1 protein immunoblot after DNMT1 AS or 5-AZA-dC treatment; format: cell-based; details: ACHN cells; 40 nM DNMT1 AS daily over 9 days or 200 nM 5-AZA-dC daily over 4 days; protein 4, 24, 48 hrs after last treatment
# T1 construct: endogenous in cells; host or cells: ACHN renal cell carcinoma cells
# Experimental: ACHN Renal cell carcinoma cells were cultured at 37° C. in 5% CO2 using Minimum Essential Medium (GIBCO, Invitrogen, Carlsbad, Calif.) with 0.1 mM non-essential amino acids (GIBCO), 1.0 mM pyruvate (GIBCO), 10% fetal bovine serum, penicillin G (50 U/ml), and streptomycin (50 μg/ml). WM9 melanoma cells (13) were grown in RPMI medium (GIBCO) containing 10% fetal bovine serum, penicillin G (50 U/ml), and streptomycin (50 μg/ml) under the same incubator conditions.
# To selectively downregulate DNMT1, cells were transfected with MG98 (MethylGene, Quebec, Canada), a second-generation 4×4 2′methyl phosphorothioate oligonucleotide antisense against the 3′ UTR of DNMT1 mRNA (5′-[…]-3) or mismatch (underlined) control oligonucleotide (5′-[…]-3′) (SEQ ID NO:40) at indicated concentrations starting one day after plating at 15000 cells/cm^2. Transfections were performed daily with 6.25 μg/ml Lipofectin (Invitrogen, Carlsbad, Calif.) in OptiMem (GIBCO, Invitrogen, Carlsbad, Calif.) over 4 hr. Before and after transfections cells were washed once with PBS. Every second day cells were replated at 15000 cells/cm^2 four hr after the preceding transfection. 5-AZA-dC (Sigma-Aldrich, St Louis, Mo.) stock solution (100 mM) in DMSO and working solutions for one time use in PBS (1 mM) were stored at −20° C. […]
# ACHN cells [1] = experiment: real-time RT-PCR for stat1, stat2 genes; format: cell-based, human
# ACHN cells [2] = experiment: TUNEL flow cytometric analysis of apoptosis; format: cell-based, human; details: for resistance to IFN-induced apoptosis after pretreatment: FIG. 2A; for apoptosis, agent alone: FIG. 2B
# Experimental: After the indicated time of DNMT1 inhibition cells were plated at 5000 cells/cm^2 for TUNEL assay with IFNs added 16 hr after plating. Four to 5 days after IFN administration cells were harvested and processed according to the manufacturer's instructions for TUNEL flow cytometric analysis (BD Pharmingen, San Diego, Calif.).
# caspase 3 = caspase 3 activity assay; format: cell-based, human; details: FIG. 3; pretreatment alone
# ACHN cells [3] = experiment: cDNA array analysis (Affymetrix U133A); format: cell-based, human
# Text: To identify additional genes reactivated through DNA demethylation and of potential importance for the sensitization to IFN-induced apoptosis we performed cDNA array analysis with RNA harvested from ACHN cells 24 hr after the 8th DNMT1 AS transfection and 16 hr after 50 U/ml IFN β 1a treatment. RNA was harvested as mentioned above using Trizol (Invitrogen, Carlsbad, Calif.) method followed by transcription into cRNA, according to Affymetrix (Santa Clara, Calif.) recommendations for U133A array hybridization. Expression was analyzed using Affymetrix software.
# ACHN cells [4] = experiment: growth of ACHN cells (data not shown); format: cell-based, human
# RASSF1A promoter region = experiment: methylation specific PCR of RASSF1A; format: cell-based, human; details: ACHN cells
# Experimental: One microgram of genomic DNA, harvested with a blood DNA mini kit (Quiagen, Valencia, Calif.), was used for bisulfite modification with the CpGenome kit (Chemicon International, Temecula, Calif.) according to the manufacturer's instructions with final resuspension in 20 μl of 10 mM Tris/Ci, pH 8.5. Four μl of bisulfite modified DNA was used per 25 μl MSP reaction. Primers for RASSF1A MSP as published (15) were (5′ to 3′): M forward: GGG TTT TGC GAG AGC GCG (SEQ ID NO:41), M reverse: GCC AAG CGC AAA CAA TCG (SEQ ID NO:42), U forward: GGT TIT GTG AGA GTG TGT TTA G (SEQ ID NO:43), U reverse: AAACCAAACACAAACAATCAC (SEQ ID NO:44). PCR settings for methylated (M) primer pair were denaturation at 95° C. for 5 min, followed by 35 cycles with a 1 min denaturation step, 30 sec annealing at 60° C., and extension at 72° C. for 30 sec. Final extension after 35 cycles was at 72° C. for 4 min. For sequences specific for unmethylated (U) DNA settings were the same except for annealing at 55° C.
# RASSF1A = experiment: RT-PCR for RASSF1A; format: cell-based, human; details: ACHN cells; data not shown
# tumour xenograft models = experiment: tumour xenograft models; format: in vivo; details: daily dosing compared to intermittent administration
# [5] = Phase I studies of MG98, toxicity
# T1 sequence (P26358 whole entry): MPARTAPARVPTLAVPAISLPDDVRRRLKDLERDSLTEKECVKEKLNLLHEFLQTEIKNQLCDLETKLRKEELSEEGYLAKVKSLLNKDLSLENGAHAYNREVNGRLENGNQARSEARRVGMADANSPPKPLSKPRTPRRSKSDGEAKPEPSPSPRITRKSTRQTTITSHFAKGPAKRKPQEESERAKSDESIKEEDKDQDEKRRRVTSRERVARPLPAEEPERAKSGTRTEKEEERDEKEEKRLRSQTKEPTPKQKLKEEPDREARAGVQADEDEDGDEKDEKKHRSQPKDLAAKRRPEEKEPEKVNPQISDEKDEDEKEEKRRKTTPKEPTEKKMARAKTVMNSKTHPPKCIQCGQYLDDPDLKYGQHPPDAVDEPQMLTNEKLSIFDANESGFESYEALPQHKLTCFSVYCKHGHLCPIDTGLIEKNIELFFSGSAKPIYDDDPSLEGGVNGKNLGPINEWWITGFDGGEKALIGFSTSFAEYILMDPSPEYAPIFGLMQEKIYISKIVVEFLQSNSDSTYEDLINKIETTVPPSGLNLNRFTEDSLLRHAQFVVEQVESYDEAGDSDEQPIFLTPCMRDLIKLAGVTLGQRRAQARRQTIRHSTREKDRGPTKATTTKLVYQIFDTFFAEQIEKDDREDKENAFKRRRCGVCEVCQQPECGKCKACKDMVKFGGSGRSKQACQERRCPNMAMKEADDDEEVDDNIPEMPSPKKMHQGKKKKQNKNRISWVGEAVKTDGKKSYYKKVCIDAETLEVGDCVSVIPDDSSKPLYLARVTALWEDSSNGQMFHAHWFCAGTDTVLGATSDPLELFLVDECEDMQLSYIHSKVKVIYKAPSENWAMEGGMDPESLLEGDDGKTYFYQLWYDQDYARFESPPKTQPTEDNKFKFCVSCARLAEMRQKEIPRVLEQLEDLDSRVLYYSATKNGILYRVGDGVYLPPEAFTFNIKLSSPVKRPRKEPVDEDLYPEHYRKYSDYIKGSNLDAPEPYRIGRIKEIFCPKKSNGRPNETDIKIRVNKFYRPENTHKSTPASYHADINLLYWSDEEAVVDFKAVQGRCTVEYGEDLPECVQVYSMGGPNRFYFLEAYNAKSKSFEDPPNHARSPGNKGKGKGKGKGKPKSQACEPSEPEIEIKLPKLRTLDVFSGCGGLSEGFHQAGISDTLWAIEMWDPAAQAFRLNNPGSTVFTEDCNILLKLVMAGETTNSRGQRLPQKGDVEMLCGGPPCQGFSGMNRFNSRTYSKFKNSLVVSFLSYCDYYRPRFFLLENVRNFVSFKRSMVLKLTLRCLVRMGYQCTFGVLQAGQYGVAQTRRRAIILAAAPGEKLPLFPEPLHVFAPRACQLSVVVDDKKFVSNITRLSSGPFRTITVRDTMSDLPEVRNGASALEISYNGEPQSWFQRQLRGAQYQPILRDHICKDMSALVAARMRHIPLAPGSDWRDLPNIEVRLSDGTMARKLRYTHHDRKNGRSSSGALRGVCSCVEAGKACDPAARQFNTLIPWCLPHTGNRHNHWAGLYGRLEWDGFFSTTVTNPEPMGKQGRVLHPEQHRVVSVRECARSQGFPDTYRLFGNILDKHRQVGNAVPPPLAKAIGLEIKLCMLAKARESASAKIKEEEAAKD
molecule,measurement,setting,value
"Nc1ncn([C@H]2C[C@H](O)[C@@H](CO)O2)c(=O)n1 [5-AZA-dC, 5-aza-deoxycytidine, reference compound]",DNMT1 protein,DNMT1 protein,suppressed up to 48 hrs
same,"stat1 expression, fold change over untreated",ACHN cells [1],0.57 fold
same,"stat2 expression, fold change over untreated",ACHN cells [1],1.38 fold
same,resistance to IFN-induced apoptosis after pretreatment,ACHN cells [2],overcome
same,TUNEL positive,"ACHN cells [2]; agent alone, no IFN, 5-AZA-dC 4 days",20%
same,caspase 3 activity,caspase 3,increased caspase 3 activity
"5′-UUCATGTCAGCCAAGGCCAC-3 (all phosphorothioate, sugars by position and methylation of C not given here; 2'-O-methyl gapmer) [MG98]",DNMT1 protein,DNMT1 protein,suppressed up to 48 hrs
same,"stat1 expression, fold change over untreated",ACHN cells [1],0.27 fold
same,"stat2 expression, fold change over untreated",ACHN cells [1],1.05 fold
same,number of genes increased at least two-fold compared to the mismatch oligonucleotide,"ACHN cells [3]; DNMT1 AS alone, data not shown",One hundred and thirty-seven
same,expression of genes known to be involved in IFN-induced apoptosis,ACHN cells [3]; Table 2,not significantly altered
same,reduction in DNMT1 expression,ACHN cells [3]; compared to mismatch oligonucleotide,94%
same,expression of other DNMTs,"ACHN cells [3]; compared to mismatch oligonucleotide, data not shown",without affecting expression of other DNMTs
same,increase of IFN-stimulated gene IF127 over MM treated cells,ACHN cells [3]; p<0.045,at least two-fold
same,"Fold change in expression, Caspase 4",ACHN cells [3]; relative to MM,1.41 (MI) fold
same,"Fold change in expression, HSXIAPAF1 (XAF1)",ACHN cells [3]; relative to MM,3.36 (NS) fold
same,"Fold change in expression, IRF1",ACHN cells [3]; relative to MM,1.32 (NS) fold
same,"Fold change in expression, OAS1",ACHN cells [3]; relative to MM,0.80 (NS) fold
same,"Fold change in expression, PRKR (PKR)",ACHN cells [3]; relative to MM,0.71 fold
same,"Fold change in expression, Stat1",ACHN cells [3]; relative to MM,0.60 fold
same,"Fold change in expression, Stat2",ACHN cells [3]; relative to MM,0.68 (NS) fold
same,"Fold change in expression, TNFSF10 (TRAIL/Apo2L)",ACHN cells [3]; relative to MM,0.93 (NS) fold
same,growth,ACHN cells [4],reduced
same,methylation of RASSF1A promoter region,RASSF1A promoter region,led to demethylation
same,amplification of full length RASSF1A cDNA,RASSF1A,single band
same,resistance to IFN-induced apoptosis after pretreatment,ACHN cells [2],overcome
same,"apoptosis, agent alone",ACHN cells [2],did not result in significant apoptosis
same,caspase 3 activity,caspase 3,increased caspase 3 activity
same,anti-tumour activity,tumour xenograft models,greatest anti-tumour activity
same,dose levels resulting in frequent adverse events,"[5]; Phase I, 21-day infusion",above 80 mg/m^2/day
same,toxicity seen in nephrectomized patients,"[5]; intermittent schedule, 160 mg/m^2/day is 44% below the dose concerned",grade 3 transaminitis
"5′-TTAATGTAACCTAAGGTCAA-3′ (listed as DNA, chemistry not given here) [MM, mismatch control oligonucleotide]",amplification of full length RASSF1A cDNA,RASSF1A,no band
same,cells apoptotic on TUNEL staining (up to),"ACHN cells [2]; 5-AZA-dC over 24 days or oligonucleotide transfection over 6 to 8 days, then 50 U/ml IFN α or IFN β, 4-5 days after IFN",not
same,resistance to IFN-induced apoptosis after pretreatment,ACHN cells [2],did not
same,"apoptosis, agent alone",ACHN cells [2],did not result in significant apoptosis
